In patent US20140243243A1, “DEVICE AND METHOD FOR CELL-EXCLUSION PATTERNING” (Corning Incorporated, priority 2012, published 2014):

Test system: cells growing in a cell-exclusion patterned cell culture
Test: Cell-exclusion patterned cell culture in the presence and absence of a drug (cell proliferation and migration)
Type: cell-based
Conditions: uncoated well bottoms; micrographs pretreatment (t=0 h), after 14 h and 40 h of treatment; FIG. 11
Protocol: Cell-exclusion patterning was carried out by a sequence of steps, as illustrated in FIG. 3. In Step A, complete medium was added to wells of a microtiter plate. The volume added was approximately 30 ul for 384-well plates or 75 ul for 96-well plates. In step B, a comb having guide pins and blocking pins was lowered into the microtiter plate and the blocking pins were locked into the desired wells and the guide pins into the corresponding guide holes. In step C, cells were introduced into the wells of the microtiter plate by adding a solution containing cells to the walls of the wells. The volume of the cell solution was approximately 20 ul for 384-well plates or 25-50 ul for 96-well plates. The cell density was 8000 cells per well and 30,000 cells per well for 384- and 96-well plates, respectively. In step D, the cells were allowed to settle and adhere to the well bottom inside a cell culture hood for about 45 min. The microplates were then placed inside a humidified incubator at 37° C. and 5% CO2 for 3-4 h to allow the cells to attach to the well bottom. In step E, the comb and the pins were removed from the wells. Drugs were then added, if necessary to carry out an assay.
Cell patterns were imaged by bright-field or fluorescent microscopy or by using Corning Epic® label-free high-resolution optical resonance detection system (available from Corning Incorporated, Corning, N.Y.). […]

C=C1[C@@H](C)[C@H]2[C@H](Cc3ccccc3)NC(=O)[C@]23[C@H](OC(C)=O)/C=C/[C@@](C)(O)C(=O)[C@@H](C)C/C=C/[C@H]3[C@@H]1O [CytoD, Cytochalasin D]
growth of cells into the cell exclusion area over time: cells do not grow into the cell exclusion area over time
